Measured values as given in patent US10981911B2, “Imidazopyrrolopyridine as inhibitors of the JAK family of kinases” (Janssen Pharmaceutica NV, priority 2016, dated 2021).
pIC50: −log10 of the molar value.

How the values were obtained:
Type in all cases: biochemical
JAK3-JH1JH2 = JAK3-JH1JH2 (Homo sapiens (Human), UniProt P52333); assay: Enzymatic inhibition assay (RapidFire HTMS), JAK3; conditions: 150 μM ATP, 40 μM substrate
Summary of the method: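 Compounds tested in duplicate over 11-point 1:3 or 1:4 dilution series; no-enzyme wells as negative control. After 45 min at 25 °C, TFA quench with internal standard, and phosphorylated product quantified by RapidFire–QTrap mass spectrometry relative to the uninhibited reaction.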

JAK1-JH1JH2 = JAK1-JH1JH2 (Homo sapiens (Human), UniProt P23458); assay: Enzymatic inhibition assay (RapidFire HTMS), JAK1; conditions: 12.5 μM ATP, 200 μM substrate; read-out: JAK1-JH2JH1 IC50
Sequence of JAK1-JH1JH2 (P23458 574-1154): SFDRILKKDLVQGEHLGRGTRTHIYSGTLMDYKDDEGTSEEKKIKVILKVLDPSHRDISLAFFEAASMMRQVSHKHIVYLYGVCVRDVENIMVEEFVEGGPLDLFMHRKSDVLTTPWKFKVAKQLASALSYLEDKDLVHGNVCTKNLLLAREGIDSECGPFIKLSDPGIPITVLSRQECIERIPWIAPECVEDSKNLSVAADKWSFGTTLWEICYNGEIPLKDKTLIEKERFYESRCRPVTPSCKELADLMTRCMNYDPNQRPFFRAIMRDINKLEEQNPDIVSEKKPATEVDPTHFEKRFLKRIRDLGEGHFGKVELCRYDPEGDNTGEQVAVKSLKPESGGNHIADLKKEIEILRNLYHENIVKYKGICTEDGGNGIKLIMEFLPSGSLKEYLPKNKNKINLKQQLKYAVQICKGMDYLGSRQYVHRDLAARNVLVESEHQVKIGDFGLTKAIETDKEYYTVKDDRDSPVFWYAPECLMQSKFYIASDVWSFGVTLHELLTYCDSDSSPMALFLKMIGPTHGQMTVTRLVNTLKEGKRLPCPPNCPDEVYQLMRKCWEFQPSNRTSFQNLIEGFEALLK
Summary of the method: (§1)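 Quenched with 0.5% TFA plus internal-standard peptide; phosphorylated product quantified by RapidFire C4 SPE–ESI-MS, 11-point 1:3 or 1:4 dilutions in duplicate.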

JAK2-JH1JH2 = JAK2-JH1JH2 (Homo sapiens (Human), UniProt O60674); assay: Enzymatic inhibition assay (RapidFire HTMS), JAK2; conditions: 30 μM ATP, 40 μM substrate
Sequence of JAK2-JH1JH2 (O60674 532-1132): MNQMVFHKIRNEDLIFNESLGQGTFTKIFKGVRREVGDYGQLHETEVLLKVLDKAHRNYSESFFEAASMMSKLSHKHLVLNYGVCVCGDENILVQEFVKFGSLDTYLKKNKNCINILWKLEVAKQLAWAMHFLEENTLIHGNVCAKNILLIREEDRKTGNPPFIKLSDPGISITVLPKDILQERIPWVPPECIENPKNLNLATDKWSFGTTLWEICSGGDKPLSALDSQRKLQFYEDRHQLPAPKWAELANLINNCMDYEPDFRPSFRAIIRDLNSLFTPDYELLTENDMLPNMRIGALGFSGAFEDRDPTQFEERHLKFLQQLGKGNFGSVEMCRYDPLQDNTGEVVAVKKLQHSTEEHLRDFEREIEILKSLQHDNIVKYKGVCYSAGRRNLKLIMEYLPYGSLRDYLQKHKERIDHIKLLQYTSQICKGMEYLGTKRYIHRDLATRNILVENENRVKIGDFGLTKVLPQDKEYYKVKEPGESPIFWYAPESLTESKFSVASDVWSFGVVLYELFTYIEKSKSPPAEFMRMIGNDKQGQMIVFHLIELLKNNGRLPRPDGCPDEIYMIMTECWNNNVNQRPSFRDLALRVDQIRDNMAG
Summary of the method: as §1

Tyk2-JH1JH2 = Tyk2-JH1JH2 (Homo sapiens (Human), UniProt P29597, C1142A/C936A); assay: Enzymatic inhibition assay (RapidFire HTMS), Tyk2; conditions: 50 μM ATP, 200 μM substrate
Sequence of Tyk2-JH1JH2 (P29597 580-1182 C936A/C1142A): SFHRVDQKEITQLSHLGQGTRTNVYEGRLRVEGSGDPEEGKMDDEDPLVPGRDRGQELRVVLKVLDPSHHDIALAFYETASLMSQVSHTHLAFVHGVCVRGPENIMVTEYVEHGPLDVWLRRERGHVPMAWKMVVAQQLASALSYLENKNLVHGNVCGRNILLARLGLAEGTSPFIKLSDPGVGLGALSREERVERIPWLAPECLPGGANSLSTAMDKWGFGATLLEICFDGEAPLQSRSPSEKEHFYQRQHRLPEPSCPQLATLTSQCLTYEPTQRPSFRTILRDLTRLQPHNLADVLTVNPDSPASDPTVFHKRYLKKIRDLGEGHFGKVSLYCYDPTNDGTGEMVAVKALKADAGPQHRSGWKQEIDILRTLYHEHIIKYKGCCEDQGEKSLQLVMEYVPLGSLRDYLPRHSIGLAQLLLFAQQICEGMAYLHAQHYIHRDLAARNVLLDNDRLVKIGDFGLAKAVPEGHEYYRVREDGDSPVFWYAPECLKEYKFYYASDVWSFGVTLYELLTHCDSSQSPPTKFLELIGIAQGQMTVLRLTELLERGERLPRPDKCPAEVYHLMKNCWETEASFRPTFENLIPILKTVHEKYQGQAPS
Summary of the method: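 Compounds were tested in duplicate as 11-point 1:3 or 1:4 DMSO dilutions (≤0.25% DMSO final) in 20 μL reactions at 25 °C for 90 min, with Tyk2 pre-incubated 30 min with 2 mM ATP. Reactions were quenched with TFA plus internal standard peptide, and phosphorylated product was quantified by RapidFire C4 SPE–ESI MS.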

Sequence of JAK3-JH1JH2 (P52333 512-1124): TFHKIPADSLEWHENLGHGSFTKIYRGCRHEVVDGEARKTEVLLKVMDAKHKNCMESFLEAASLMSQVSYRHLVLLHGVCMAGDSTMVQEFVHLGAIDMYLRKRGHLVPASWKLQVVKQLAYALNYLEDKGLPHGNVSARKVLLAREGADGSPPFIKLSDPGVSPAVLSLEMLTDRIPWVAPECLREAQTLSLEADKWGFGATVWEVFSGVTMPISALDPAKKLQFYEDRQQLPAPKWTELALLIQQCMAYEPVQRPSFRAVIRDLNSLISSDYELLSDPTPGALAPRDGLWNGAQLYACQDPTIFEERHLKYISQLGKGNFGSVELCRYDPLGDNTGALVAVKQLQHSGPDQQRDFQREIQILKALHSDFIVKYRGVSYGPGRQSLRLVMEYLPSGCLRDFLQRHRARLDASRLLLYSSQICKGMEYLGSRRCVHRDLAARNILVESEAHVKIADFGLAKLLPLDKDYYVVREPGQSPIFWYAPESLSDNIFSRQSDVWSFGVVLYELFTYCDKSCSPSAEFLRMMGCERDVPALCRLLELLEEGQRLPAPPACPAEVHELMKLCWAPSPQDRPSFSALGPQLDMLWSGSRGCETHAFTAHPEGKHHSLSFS

SMILES | pIC50 (JAK3-JH1JH2) | pIC50 (JAK1-JH1JH2) | pIC50 (JAK2-JH1JH2) | pIC50 (Tyk2-JH1JH2)
N#CC[C@H]1CC[C@H](n2c(-c3ccc(S(F)(F)(F)(F)F)cc3)nc3cnc4[nH]ccc4c32)CC1 [Ex. 143, 2-((1r,4r)-4-(2-(4-(Pentafluoro-λ^6-sulfanyl)phenyl)imidazo[4,5-d]pyrrolo[2,3-b]pyridin-1(6H)-yl)cyclohexyl)acetonitrile] | 5.90 | 9.05 | 7.41 | 6.93
N#CC[C@H]1CC[C@H](n2c(CNC(=O)c3cn[nH]c3)nc3cnc4[nH]ccc4c32)CC1 [Ex. 144, N-((1-((1r,4r)-4-(Cyanomethyl)cyclohexyl)-1,6-dihydroimidazo[4,5-d]pyrrolo[2,3-b]pyridin-2-yl)methyl)-1H-pyrazole-4-carboxamide] | 6.42 | 9.00 | 7.37 | 7.79
N#CC[C@H]1CC[C@H](n2c(COC(=O)NCC3CCCCC3)nc3cnc4[nH]ccc4c32)CC1 [Ex. 146, (1-((1r,4r)-4-(Cyanomethyl)cyclohexyl)-1,6-dihydroimidazo[4,5-d]pyrrolo[2,3-b]pyridin-2-yl)methyl (cyclohexylmethyl)carbamate] | 6.50 | 8.96 | 7.74 | 7.95
CC(=O)N1CC(c2nc3cnc4[nH]ccc4c3n2[C@H]2CC[C@H](CC#N)CC2)C1 [Ex. 147, 2-((1r,4r)-4-(2-(1-Acetylazetidin-3-yl)imidazo[4,5-d]pyrrolo[2,3-b]pyridin-1(6H)-yl)cyclohexyl)acetonitrile] | 5.70 | 8.96 | 6.50 | 7.06
N#CC[C@H]1CC[C@H](n2c(CO/N=C(\N)C3CC3)nc3cnc4[nH]ccc4c32)CC1 [Ex. 151, (Z*)—N-((1-((1r,4r)-4-(Cyanomethyl)cyclohexyl)-1,6-dihydroimidazo[4,5-d]pyrrolo[2,3-b]pyridin-2-yl)methoxy)cyclopropanecarboximidamide] | 6.99 | 8.85 | 7.97 | 7.43
N#CC[C@H]1CC[C@H](n2c(CNC(=O)NCC3CCCCC3)nc3cnc4[nH]ccc4c32)CC1 [Ex. 155, 1-((1-((1r,4r)-4-(Cyanomethyl)cyclohexyl)-1,6-dihydroimidazo[4,5-d]pyrrolo[2,3-b]pyridin-2-yl)methyl)-3-(cyclohexylmethyl)urea] | 6.43 | 8.89 | 7.31 | 7.70
N#CCCC(=O)NCc1nc2cnc3[nH]ccc3c2n1[C@H]1CC[C@H](CC#N)CC1 [Ex. 157, 3-Cyano-N-((1-((1r,4r)-4-(cyanomethyl)cyclohexyl)-1,6-dihydroimidazo[4,5-d]pyrrolo[2,3-b]pyridin-2-yl)methyl)propanamide] | 5.95 | 8.85 | 7.13 | 7.40
CC(C)(C)OC(=O)NCc1nc2cnc3[nH]ccc3c2n1[C@H]1CC[C@H](CC#N)CC1 [Ex. 158, tert-Butyl ((1-((1r,4r)-4-(Cyanomethyl)cyclohexyl)-1,6-dihydroimidazo[4,5-d]pyrrolo[2,3-b]pyridin-2-yl)methyl)carbamate] | 6.20 | 8.85 | 7.11 | 7.23
N#CC[C@H]1CC[C@H](n2c(C3CNC3)nc3cnc4[nH]ccc4c32)CC1 [Ex. 159, 2-((1r,4r)-4-(2-(Azetidin-3-yl)imidazo[4,5-d]pyrrolo[2,3-b]pyridin-1(6H)-yl)cyclohexyl)acetonitrile] | 5.91 | 8.80 | 7.24 | 7.72
C[S@](=O)(=NCc1nc2cnc3[nH]ccc3c2n1[C@H]1CC[C@H](CC#N)CC1)c1ccccc1 [Ex. 162, 2-((1r,4r)-4-(2-((((R)-Methyl(oxo)(phenyl)-λ^6-sulfanylidene)amino)methyl)imidazo[4,5-d]pyrrolo[2,3-b]pyridin-1(6H)-yl)cyclohexyl)acetonitrile] | 5.64 | 8.80 | 6.95 | 7.09
CC(=O)N1CCC(c2nc3cnc4[nH]ccc4c3n2[C@H]2CC[C@H](CC#N)CC2)CC1 [Ex. 164, 2-((1r,4r)-4-(2-(1-Acetylpiperidin-4-yl)imidazo[4,5-d]pyrrolo[2,3-b]pyridin-1(6H)-yl)cyclohexyl)acetonitrile] | 5.67 | 8.80 | 6.90 | 6.76
N#CC[C@H]1CC[C@H](n2c(Cn3c(C4CC4)noc3=O)nc3cnc4[nH]ccc4c32)CC1 [Ex. 165, 2-((1r,4r)-4-(2-((3-Cyclopropyl-5-oxo-1,2,4-oxadiazol-4(5H)-yl)methyl)imidazo[4,5-d]pyrrolo[2,3-b]pyridin-1(6H)-yl)cyclohexyl)acetonitrile] | 5.57 | 8.77 | 6.92 | 7.52

The remaining compounds from weak to strong by pIC50 (JAK3-JH1JH2), led by results:

pIC50 (JAK3-JH1JH2) | pIC50 (JAK1-JH1JH2) | pIC50 (JAK2-JH1JH2) | pIC50 (Tyk2-JH1JH2) | SMILES
5.25 | 8.70 | 7.51 | 6.98 | C#Cc1ccc(C(=O)c2ccc(-c3nc4cnc5[nH]ccc5c4n3[C@H]3CC[C@H](CC#N)CC3)cc2)cc1 [Ex. 169, 2-((1r,4r)-4-(2-(4-(4-Ethynylbenzoyl)phenyl)imidazo[4,5-d]pyrrolo[2,3-b]pyridin-1(6H)-yl)cyclohexyl)acetonitrile]
5.80 | 8.70 | 7.47 | 7.51 | CC(C)(O)CN1CCC(c2nc3cnc4[nH]ccc4c3n2[C@H]2CC[C@H](CC#N)CC2)CC1 [Ex. 168, 2-((1r,4r)-4-(2-(1-(2-Hydroxy-2-methylpropyl)piperidin-4-yl)imidazo[4,5-d]pyrrolo[2,3-b]pyridin-1(6H)-yl)cyclohexyl)acetonitrile]
5.88 | 8.89 | 7.47 | 8.54 | N#CC[C@H]1CC[C@H](n2c(CNC(=N)C34CC5CC(CC(C5)C3)C4)nc3cnc4[nH]ccc4c32)CC1 [Ex. 156, (3R,5R,7R)—N-((1-((1r,4r)-4-(Cyanomethyl)cyclohexyl)-1,6-dihydroimidazo[4,5-d]pyrrolo[2,3-b]pyridin-2-yl)methyl)adamantane-1-carboximidamide]
5.97 | 8.82 | 7.06 | 7.28 | N#CCC(=O)N1CC(c2nc3cnc4[nH]ccc4c3n2[C@H]2CC[C@H](CC#N)CC2)C1 [Ex. 160, 3-(3-(1-((1r,4r)-4-(Cyanomethyl)cyclohexyl)-1,6-dihydroimidazo[4,5-d]pyrrolo[2,3-b]pyridin-2-yl)azetidin-1-yl)-3-oxopropanenitrile]
6.03 | 8.96 | 7.26 | 7.86 | N#CC[C@H]1CC[C@H](n2c(CC(=O)N3CCC[C@@H]3CO)nc3cnc4[nH]ccc4c32)CC1 [Ex. 149, 2-((1r,4r)-4-(2-(2-((R)-2-(Hydroxymethyl)pyrrolidin-1-yl)-2-oxoethyl)imidazo[4,5-d]pyrrolo[2,3-b]pyridin-1(6H)-yl)cyclohexyl)acetonitrile]
6.06 | 8.49 | 7.67 | 7.22 | C[S@@](=O)(=NCc1nc2cnc3[nH]ccc3c2n1[C@H]1CC[C@H](CC#N)CC1)c1ccccc1 [Ex. 163, 2-((1r,4r)-4-(2-((((S)-methyl(oxo)(phenyl)-λ^6-sulfanylidene)amino)methyl)imidazo[4,5-d]pyrrolo[2,3-b]pyridin-1(6H)-yl)cyclohexyl)acetonitrile]
6.10 | 8.55 | 7.67 | 7.27 | N#CC[C@H]1CC[C@H](n2c(CO/N=C(\N)C34CC5CC(CC(C5)C3)C4)nc3cnc4[nH]ccc4c32)CC1 [Ex. 152, (3R,5R,7R,E*)-N′-((1-((1r,4r)-4-(Cyanomethyl)cyclohexyl)-1,6-dihydroimidazo[4,5-d]pyrrolo[2,3-b]pyridin-2-yl)methoxy)adamantane-1-carboximidamide]
6.12 | 8.96 | 7.30 | 7.44 | N#CC[C@H]1CC[C@H](n2c(CNC(=O)c3ccccc3)nc3cnc4[nH]ccc4c32)CC1 [Ex. 148, N-((1-((1r,4r)-4-(Cyanomethyl)cyclohexyl)-1,6-dihydroimidazo[4,5-d]pyrrolo[2,3-b]pyridin-2-yl)methyl)benzamide]
6.59 | 8.80 | 7.70 | 7.70 | COCCNC(=O)OCc1nc2cnc3[nH]ccc3c2n1[C@H]1CC[C@H](CC#N)CC1 [Ex. 161, (1-((1r,4r)-4-(Cyanomethyl)cyclohexyl)-1,6-dihydroimidazo[4,5-d]pyrrolo[2,3-b]pyridin-2-yl)methyl (2-methoxyethyl)carbamate]
6.84 | 8.74 | 7.77 | 7.43 | N#CC[C@H]1CC[C@H](n2c(-c3cnn(Cc4cocn4)c3)nc3cnc4[nH]ccc4c32)CC1 [Ex. 166, 2-((1r,4r)-4-(2-(1-(Oxazol-4-ylmethyl)-1H-pyrazol-4-yl)imidazo[4,5-d]pyrrolo[2,3-b]pyridin-1(6H)-yl)cyclohexyl)acetonitrile]
6.96 | 8.92 | 8.00 | 7.47 | CC(C)/C(N)=N/OCc1nc2cnc3[nH]ccc3c2n1[C@H]1CC[C@H](CC#N)CC1 [Ex. 150, (Z*)—N-((1-((1r,4r)-4-(Cyanomethyl)cyclohexyl)-1,6-dihydroimidazo[4,5-d]pyrrolo[2,3-b]pyridin-2-yl)methoxy)isobutyrimidamide]
